For assay [1], the system named is SARS-CoV-2 strain USA-WA1/2020. In words: microbe, parasite or virus in culture. To be noted: HeLa-ACE2 cells, SARS-CoV-2 infection, 24 h, read-out: EC50, uM (Hela). Format: cell-based.
For assay [2], the system named is hospitalized COVID-19 patients. The conditions noted are these: large multi-center trial; cited from earlier work.
The target of the next assay is COVID-2 M^pro protease (Severe acute respiratory syndrome coronavirus 2, UniProt P0DTD1). To be noted: cell and enzyme assays; cited from earlier work.
[3] abbreviates: Severe acute respiratory syndrome coronavirus 2, HeLa-ACE2, 24 h.

Where two headings read alike, the source gives them in different places.

`CC(C)C[C@H](NC(=O)C(=O)Nc1ccccc1F)C(=O)N[C@@H](C[C@@H]1CCNC1=O)C(=O)COc1ccnc(C(F)(F)F)n1` [Compound 788, N^1-(2-fluorophenyl)-N^2—((S)-4-methyl-1-oxo-1-(((S)-3-oxo-1-((S)-2-oxopyrrolidin-3-yl)-4-((2-(trifluoromethyl)pyrimidin-4-yl)oxy)butan-2-yl)amino)pentan-2-yl)oxalamide]: the concentration giving a half-maximal response (EC50) in assay [1] (setting [3]) is 0.2 to 0.5 µM.

For the compound `CC(C)C[C@H](NC(=O)C1CC2(CC2)CO1)C(=O)N[C@@H](C[C@@H]1CCNC1=O)C(=O)COC(F)(F)F` (stereo partly drawn) [Compound 789, N-((S)-4-methyl-1-oxo-1-(((S)-3-oxo-1-((S)-2-oxopyrrolidin-3-yl)-4-(trifluoromethoxy)butan-2-yl)amino)pentan-2-yl)-5-oxaspiro[2.4]heptane-6-carboxamide], the EC50 in assay [1] (setting [3]) was below 0.05 µM.

Consider `CCN(CCO)CCCC(C)Nc1ccnc2cc(Cl)ccc12` (stereo not drawn) [hydroxychloroquine], for which, in assay [2], the “mortality of hospitalized COVID-19 patients” value is given as “failed to reduce mortality”.

In the case of `Cc1cccc(C)c1OCC(=O)N[C@@H](Cc1ccccc1)[C@@H](O)C[C@H](Cc1ccccc1)NC(=O)[C@H](C(C)C)N1CCCNC1=O` [lopinavir], the “mortality of hospitalized COVID-19 patients” value in assay [2] was “failed to reduce mortality”.

In the case of `COCC(=O)[C@H](C[C@@H]1CCNC1=O)NC(=O)[C@H](CC(C)C)NC(=O)c1cc2c(OC)cccc2[nH]1` [methyl ether of PF-00835231], the “fold less active than PF-00835231” value on COVID-2 M^pro protease was 3-5 fold.

Turning to “(S)-4-methyl-2-((l- methyl-1H-indole)-5- sulfonamido)-N-((S)- 3-oxo-1-((S)-2- oxopyrrolidin-3-yl)-4- (trifluoromethoxy)butan- 2-yl)pentanamide [Compound 463]”, in assay [1], the concentration giving a half-maximal response (EC50) is 0.2 to 0.5 µM.

Broadly, the EC50 is the midpoint of the concentration-response curve.

Values taken from patent US11708348B2, “Protease inhibitors for treatment of coronavirus infections” (The Scripps Research Institute, priority 2021, dated 2023).
